Measured values: PubChem BioAssay AID1963968 (Molecular Pharmacology Branch, DTP, NCI, 2024)

System: 945468-187-T-J3-PDC spheroids with HUVEC/MSC, viability
Experiment: Anticancer human tumor 945468-187-T-J3-PDC patient-derived rectal carcinoma cell line growth inhibition [PI3K]
Details: for IC50: curve of first compound; for viability, T/C: stronger effect = lower value; active = viability on the fitted dose curve at most 10% of control; inactive = the rest
Method in brief: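 Targeted small molecules plus PI3K inhibitors, half-log dose series from Cmax (default top 10 microM), were applied to heterotypic spheroids of cancer cells with HUVEC and MSCs. Viability indicated growth inhibition.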

[1] = second compound 0.0316 µM, first compound 0.000316 µM
[2] = second compound 0.0316 µM, first compound 0.001 µM
[3] = second compound 0.0316 µM, first compound 0.00316 µM
[4] = second compound 0.0316 µM, first compound 0.01 µM
[5] = second compound 0.0316 µM, first compound 0.0316 µM
[6] = second compound 0.0316 µM, first compound 0.1 µM
[7] = second compound 0.1 µM, first compound 0.000316 µM
[8] = second compound 0.1 µM, first compound 0.001 µM
[9] = second compound 0.1 µM, first compound 0.00316 µM
[10] = second compound 0.1 µM, first compound 0.01 µM
[11] = second compound 0.1 µM, first compound 0.0316 µM
[12] = second compound 0.1 µM, first compound 0.1 µM
[13] = second compound 0.316 µM, first compound 0.000316 µM
[14] = second compound 0.316 µM, first compound 0.001 µM
[15] = second compound 0.316 µM, first compound 0.00316 µM
[16] = second compound 0.316 µM, first compound 0.01 µM
[17] = second compound 0.316 µM, first compound 0.0316 µM
[18] = second compound 0.316 µM, first compound 0.1 µM
[19] = second compound 1 µM, first compound 0.000316 µM
[20] = second compound 1 µM, first compound 0.001 µM
[21] = second compound 1 µM, first compound 0.00316 µM
[22] = second compound 1 µM, first compound 0.01 µM
[23] = second compound 1 µM, first compound 0.0316 µM
[24] = second compound 1 µM, first compound 0.1 µM
[25] = second compound 3.16 µM, first compound 0.000316 µM
[26] = second compound 3.16 µM, first compound 0.001 µM
[27] = second compound 3.16 µM, first compound 0.00316 µM
[28] = second compound 3.16 µM, first compound 0.01 µM
[29] = second compound 3.16 µM, first compound 0.0316 µM
[30] = second compound 3.16 µM, first compound 0.1 µM
[31] = second compound 10 µM, first compound 0.000316 µM
[32] = second compound 10 µM, first compound 0.001 µM
[33] = second compound 10 µM, first compound 0.00316 µM
[34] = second compound 10 µM, first compound 0.01 µM
[35] = second compound 10 µM, first compound 0.0316 µM
[36] = second compound 10 µM, first compound 0.1 µM
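Also: spheroids exposed to agents for 7 days before viability read.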
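For viability, T/C in this document: 100% = DMSO vehicle control viability.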

CC(=O)c1c(C)c2cnc(Nc3ccc(N4CCNCC4)cn3)nc2n(C2CCCC2)c1=O + Cc1nc(NC(=O)N2CCCC2C(N)=O)sc1-c1ccnc(C(C)(C)C(F)(F)F)c1
12.4 nM: IC50 (second compound 10 µM)
> 100 nM: IC50 (second compound 0.0316 µM) | IC50 (second compound 0.1 µM) | IC50 (second compound 0.316 µM) | IC50 (second compound 1 µM) | IC50 (second compound 3.16 µM)
inactive: viability, T/C [1] 98.8% | viability, T/C [2] 100% | viability, T/C [3] 90.7% | viability, T/C [4] 107% | viability, T/C [5] 97.5% | viability, T/C [6] 104% | viability, T/C [7] 91.5% | viability, T/C [8] 107% | viability, T/C [9] 85.5% | viability, T/C [10] 91% | viability, T/C [11] 100% | viability, T/C [12] 102% | viability, T/C [13] 103% | viability, T/C [14] 101% | viability, T/C [15] 103% | viability, T/C [16] 97.9% | viability, T/C [17] 99.8% | viability, T/C [18] 94.3% | viability, T/C [19] 111% | viability, T/C [20] 103% | viability, T/C [21] 100% | viability, T/C [22] 97.6% | viability, T/C [23] 101% | viability, T/C [24] 102% | viability, T/C [25] 106% | viability, T/C [26] 93.2% | viability, T/C [27] 90.5% | viability, T/C [28] 90.7% | viability, T/C [29] 90.7% | viability, T/C [30] 76.2% | viability, T/C [31] 57.6% | viability, T/C [32] 56% | viability, T/C [33] 55.1% | viability, T/C [34] 49.3% | viability, T/C [35] 46% | viability, T/C [36] 31.3%

CC(C)n1nc(-c2ccc3oc(N)nc3c2)c2c(N)ncnc21 + Cc1nc(NC(=O)N2CCCC2C(N)=O)sc1-c1ccnc(C(C)(C)C(F)(F)F)c1
77 nM: IC50 (second compound 1 µM)
30.2 nM: IC50 (second compound 3.16 µM)
10.7 nM: IC50 (second compound 10 µM)
> 100 nM: IC50 (second compound 0.0316 µM) | IC50 (second compound 0.1 µM) | IC50 (second compound 0.316 µM)
inactive: viability, T/C [1] 105% | viability, T/C [2] 118% | viability, T/C [3] 98.8% | viability, T/C [4] 114% | viability, T/C [5] 127% | viability, T/C [6] 65.5% | viability, T/C [7] 109% | viability, T/C [8] 109% | viability, T/C [9] 95.4% | viability, T/C [10] 115% | viability, T/C [11] 118% | viability, T/C [12] 54.5% | viability, T/C [13] 113% | viability, T/C [14] 104% | viability, T/C [15] 97.5% | viability, T/C [16] 121% | viability, T/C [17] 111% | viability, T/C [18] 53.3% | viability, T/C [19] 116% | viability, T/C [20] 114% | viability, T/C [21] 101% | viability, T/C [22] 109% | viability, T/C [23] 84% | viability, T/C [24] 39.6% | viability, T/C [25] 108% | viability, T/C [26] 104% | viability, T/C [27] 102% | viability, T/C [28] 77.2% | viability, T/C [29] 49.9% | viability, T/C [30] 29.7% | viability, T/C [31] 68% | viability, T/C [32] 53.3% | viability, T/C [33] 64.3% | viability, T/C [34] 50.2% | viability, T/C [35] 31.8% | viability, T/C [36] 22.7%

CCCS(=O)(=O)Nc1ccc(F)c(C(=O)c2c[nH]c3ncc(-c4ccc(Cl)cc4)cc23)c1F + Cc1nc(NC(=O)N2CCCC2C(N)=O)sc1-c1ccnc(C(C)(C)C(F)(F)F)c1
inactive: viability, T/C [5] 99.8% | viability, T/C [6] 109% | viability, T/C (second compound 0.0316 µM, first compound 0.316 µM) 87.1% | viability, T/C (second compound 0.0316 µM, first compound 1 µM) 103% | viability, T/C (second compound 0.0316 µM, first compound 3.16 µM) 107% | viability, T/C (second compound 0.0316 µM, first compound 10 µM) 17.1% | viability, T/C [11] 111% | viability, T/C [12] 98% | viability, T/C (second compound 0.1 µM, first compound 0.316 µM) 93.3% | viability, T/C (second compound 0.1 µM, first compound 1 µM) 105% | viability, T/C (second compound 0.1 µM, first compound 3.16 µM) 107% | viability, T/C (second compound 0.1 µM, first compound 10 µM) 26.9% | viability, T/C [17] 109% | viability, T/C [18] 101% | viability, T/C (second compound 0.316 µM, first compound 0.316 µM) 100% | viability, T/C (second compound 0.316 µM, first compound 1 µM) 119% | viability, T/C (second compound 0.316 µM, first compound 3.16 µM) 108% | viability, T/C (second compound 0.316 µM, first compound 10 µM) 37.9% | viability, T/C [23] 119% | viability, T/C [24] 116% | viability, T/C (second compound 1 µM, first compound 0.316 µM) 112% | viability, T/C (second compound 1 µM, first compound 1 µM) 114% | viability, T/C (second compound 1 µM, first compound 3.16 µM) 104% | viability, T/C (second compound 1 µM, first compound 10 µM) 56.9% | viability, T/C [29] 106% | viability, T/C [30] 110% | viability, T/C (second compound 3.16 µM, first compound 0.316 µM) 101% | viability, T/C (second compound 3.16 µM, first compound 1 µM) 99.7% | viability, T/C (second compound 3.16 µM, first compound 3.16 µM) 96.3% | viability, T/C (second compound 3.16 µM, first compound 10 µM) 31.2% | viability, T/C [35] 67.1% | viability, T/C [36] 52.8% | viability, T/C (second compound 10 µM, first compound 0.316 µM) 53.3% | viability, T/C (second compound 10 µM, first compound 1 µM) 64.9% | viability, T/C (second compound 10 µM, first compound 3.16 µM) 41.5%
6380 nM: IC50 (second compound 0.0316 µM)
7050 nM: IC50 (second compound 0.1 µM)
7200 nM: IC50 (second compound 3.16 µM)
> 10000 nM: IC50 (second compound 1 µM)
active: viability, T/C (second compound 10 µM, first compound 10 µM) 5.18%
1840 nM: IC50 (second compound 10 µM)
8190 nM: IC50 (second compound 0.316 µM)
